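Interpolation was linear, between the two tested concentrations surrounding the appropriate level; five concentrations were tested over 48 hours in 96-well plates. GI50 marks 50% less growth.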 Active and inactive are the calls of the source. Cut-off read from the data, not from the text of the source: active = GI50 up to about 1.1 µM and inactive = higher.
Assays:
Assay in all cases: inhibition of tumour cell growth, NCI panel, 48 h
DMS-273 = tested on: DMS-273
KM-20L2 = tested on: KM-20L2
Hs-578T = tested on: Hs-578T
T47D = tested on: T47D
BT-549 = tested on: BT-549
DLD-1 = tested on: DLD-1
DMS-114 = tested on: DMS-114
LXFL 529 = tested on: LXFL 529

SMILES	GI50 (DMS-273)	GI50 (KM-20L2)	GI50 (Hs-578T)	GI50 (T47D)	GI50 (BT-549)	GI50 (DLD-1)	GI50 (DMS-114)	GI50 (LXFL 529)
COc1cccc(/C=N/C23CC4CC(CC(C4)C2)C3)c1	> 100 µM (inactive)	> 100 µM (inactive)						
O=C1C=C(Nc2ccc(Br)cc2)c2ccccc2/C1=N/O			3.2 µM (inactive)	13.6 µM (inactive)				
OCCc1ccsc1-c1sc(-c2cc(CCO)c(-c3sccc3CCO)s2)cc1CCO					6.11 µM (inactive)			
CCOc1ccc(-n2nnc3c(N)nc(N)nc32)cc1				> 100 µM (inactive)	> 100 µM (inactive)			
COC(=O)C1C(=O)C(C(=O)OC)C2CCC1N2C (stereo not given)			52.2 µM (inactive)	30.7 µM (inactive)	0.628 µM (active)			
O=C(NN=C1NCCCN1)c1ccco1			> 100 µM (inactive)	> 100 µM (inactive)	> 100 µM (inactive)			
CCOC(=O)c1c(SCC#N)n(-c2ccccc2)c(=S)n(-c2ccccc2)c1=O			28.1 µM (inactive)	44 µM (inactive)	36.1 µM (inactive)			
COc1cc(Cc2cnc(N)nc2N)cc(OC)c1OCCCNc1ccc([N+](=O)[O-])cc1			18.5 µM (inactive)	8.07 µM (inactive)	10.5 µM (inactive)			
Cc1ccc(S(=O)(=O)N2CCN(S(=O)(=O)c3ccc(C)cc3)CCN(S(=O)(=O)c3ccc(C)cc3)Cc3cc(Br)c(Br)cc3CN(S(=O)(=O)c3ccc(C)cc3)CC2)cc1			> 100 µM (inactive)	> 100 µM (inactive)	> 100 µM (inactive)			
O=C1C(=Cc2ccc(O)cc2)N=C(c2ccccc2)N1n1c(-c2ccccc2)nc2ccccc2c1=O			81.5 µM (inactive)	49.8 µM (inactive)	> 100 µM (inactive)			
CC(=O)c1ccc(-c2oc(-c3ccccc3)cc2-c2ccc3c(c2)OCO3)s1			> 100 µM (inactive)	17 µM (inactive)				
CCOc1cn(C2OC(CO)C(O)C2O)c(=O)[nH]c1=O (stereo not given)	> 100 µM (inactive)	> 100 µM (inactive)				90.2 µM (inactive)	> 100 µM (inactive)	> 100 µM (inactive)
COC(=O)c1cc(C#N)[nH]c1-c1ccsc1			> 100 µM (inactive)	25.1 µM (inactive)	58.7 µM (inactive)			
OC(C/C(=N\N=C(/CC(O)(C(F)(F)F)C(F)(F)F)c1ccccc1)c1ccccc1)(C(F)(F)F)C(F)(F)F			> 10 µM (inactive)	> 10 µM (inactive)	> 10 µM (inactive)			
CC(=O)C1=CN=C2C(=O)N(c3ccccc3)N(C)C12C (stereo not given)					> 100 µM (inactive)			
CC1(C)OC[C@@H](C[C@H](O)COCc2ccccc2)O1			> 100 µM (inactive)	> 100 µM (inactive)	> 100 µM (inactive)			

SMILES	GI50 (DMS-273)	GI50 (KM-20L2)	GI50 (Hs-578T)	GI50 (T47D)	GI50 (BT-549)	GI50 (DLD-1)	GI50 (DMS-114)	GI50 (LXFL 529)
CCn1c(SCC(=O)NNC(=S)Nc2ccc(Cl)cc2)nc2ccccc2c1=O			> 100 µM (inactive)	35.8 µM (inactive)	31.8 µM (inactive)			
O=c1oc(-c2ccccc2)c(-c2ccccc2)n1-c1ccc(Br)cc1			32.3 µM (inactive)	29.4 µM (inactive)	25.5 µM (inactive)			
Cc1cc(C)nc(NC(=S)Nc2cccc(Cl)c2)c1			> 100 µM (inactive)	> 88.3 µM (inactive)	> 100 µM (inactive)			
CN(C)c1ccc(/C=C2\N=C(NN)NC2=O)cc1			> 100 µM (inactive)	44.4 µM (inactive)	> 100 µM (inactive)			
CCN(CC)CCNC(=O)c1cn2c(ccc3sc4ccccc4c(=O)c32)n1			15.3 µM (inactive)	14.5 µM (inactive)	13.8 µM (inactive)			
COC(=O)[C@@]12CC3CN(Cc4c1[nH]c1ccccc41)C2CC3=O				> 100 µM (inactive)	> 100 µM (inactive)			
CC(C)C1C(=O)NC(CO)Cc2c[nH]c3c(C(c4c[nH]c5ccccc45)C(O)CO)ccc(c23)N1C (stereo not given)	> 100 µM (inactive)					> 100 µM (inactive)		96.4 µM (inactive)
O=C1CC[C@@H](NC(=O)Cc2ccccc2)C(=O)N1	> 100 µM (inactive)	> 100 µM (inactive)				> 100 µM (inactive)		> 100 µM (inactive)
CCc1cccc(C)c1NC(=O)CCc1nnc(SC)o1	> 100 µM (inactive)	> 100 µM (inactive)				> 100 µM (inactive)	> 100 µM (inactive)	> 100 µM (inactive)
Nc1nc(Cl)cc(OCC2(CO)CCCC2)n1			> 100 µM (inactive)					
Cc1nc2ccc(S(=O)(=O)Nc3ccc(Cl)cc3)cc2c(=O)n1NC(=O)CNc1ccc(Cl)cc1			> 100 µM (inactive)		> 100 µM (inactive)			
NC(Cc1ccc(S(=O)(=O)O)cc1)C(=O)NC(Cc1ccc(S(=O)(=O)O)cc1)C(=O)O (stereo not given)			> 100 µM (inactive)	> 100 µM (inactive)	> 100 µM (inactive)			
COc1ccc(S(=O)(=O)O)cc1-n1nc(C(=O)Nc2ccccc2)n[n+]1-c1cc(S(=O)(=O)[O-])ccc1OC			> 100 µM (inactive)	> 100 µM (inactive)				
COC1=CC(=O)C2C(C1=O)C(c1ccccc1)[C@H]2C (stereo not given in full)	> 100 µM (inactive)					> 10 µM (inactive)		37.2 µM (inactive)
O=C1Sc2ccccc2C(=O)N2CSCC12 (stereo not given)	> 100 µM (inactive)	> 100 µM (inactive)				> 100 µM (inactive)	> 100 µM (inactive)	> 100 µM (inactive)
Cc1cc(S(=O)(=O)Nc2nc(N)n(-c3ccccn3)n2)c(S)cc1Cl			75 µM (inactive)	> 100 µM (inactive)	> 100 µM (inactive)			

From ChEMBL document CHEMBL1201862, “PubChem BioAssay data set” (2004)
